Data from US20240101552A1, “CARBONYL HETEROCYCLIC COMPOUND AND APPLICATION THEREOF” (SHANGHAI PHARMACEUTICALS HOLDING CO., LTD., priority 2020, published 2024).
Entries after “also recorded” stand apart in the source; their conditions may differ.

Legend:
[1] = molecular target: LANCL2 (Homo sapiens (Human), UniProt Q9NS86); test: SPR (BIACORE S200) kinetic determination of LANCL2-small molecule interactions; format: binding; conditions: for Kd: immobilized LANCL2, 1:1 binding model, pH 6.5, 25° C.; for Rmax (RU): maximum binding force
Experimental: 1.1 Reagent Materials • Ligand: LANCL2 • Running buffer: 20 mM MES, 150 mM NaCl, 0.05% P20, pH 6.5, 1% DMSO
Injection conditions for small molecule compounds: a flow rate of 30 μL/min, a binding time of 60 s, a dissociation time of 300 s.
Running buffer: 20 mM MES, 150 mM NaCl, 0.05% P20, pH 6.5, 1% DMSO.
Sample chamber temperature: 25° C.; analysis temperature: 25° C.
Kinetic determination of LANCL2-small molecule interactions was performed. The kinetic parameters of small molecules BT-11 and L-1 to 60 (analytes) binding to LANCL2 (ligand) were determined using BIACORE S200. Data were generated in triplicate in a dose-dependent manner (5-8 titration points) and analyzed to determine binding models (Langmuir, conformational shifts, etc.), real-time association and dissociation constants, and equilibrium dissociation constants. SPR technology allows the validation of specific LANCL2-phytochemical interactions as well as an increased insight into the gold standard of binding mechanisms and rates. Experiments were performed on carboxymethyl polydextrose (CM5) sensor chips by amine-coupled covalent attachment of LANCL2. Data were analyzed with BIACORE S200T200 evaluation software (version 1), so as to determine affinity binding constants (KD) using a 1:1 binding model.
An optical technique for detecting molecular interactions, SPR, was used to measure the binding affinity between LANCL2 and a ligand thereof (compound to be tested). Purified recombinant LANCL2 protein was immobilized on a BIACORE sensor chip and small molecules were injected onto the protein surface using an equipment of microfluidic system. The change in total mass on the chip surface, corresponding to a small binding to the protein, was measured. […] The equilibrium dissociation constant (Kd) was often used to describe the affinity between a ligand and a protein, such as affinity degree of a ligand binding to a specific protein. Ligand-protein affinity was affected by non-covalent intermolecular interactions between two molecules, such as hydrogen bonding, electrostatic interactions, hydrophobic bonds and van der Waals forces. The steady-state affinity (Kd) for each interaction could be measured by plotting equilibrium binding levels against compound concentrations.

[2] = system: TNBS-induced colitis in mice; test: Alleviating effect on TNBS-induced colitis in mice, study (II); format: in vivo, Balb/c mice; conditions: for colon weight (FIG. 18B) / weight-to-length ratio of colon (FIG. 18C): L compounds PO 50 mpk BID, Mesalazine PO 100 mpk QD
Experimental: (§1) Sixty female Balb/c mice, weighing about 18 g and 8-10 weeks old, were randomly divided into twelve groups, including eleven model groups and one Sham control group. The administration was started on Day 1 and ended on Day 7, with the compounds prepared once a day, as detailed in Table 1 for route and frequency of administration, and Table 2 for compound preparation and volume of administration.
(§2) Balb/c mice weighing about 18-20 g were anesthetized with 0.25 mL of 1.25% Avertin on Day 0. The mice in the model group were perfused rectally with 150 μL of 1% TNBS solution (ethanol with a final concentration of 50%). The mice in the Sham control group were perfused rectally with 50% ethanol on Day 0.
(§3) The mouse colon was photographed, measured for the length, and weighed after the contents were removed. The colon of each mouse was then cut longitudinally at ½, rolled in a uniform direction by Swiss-roll method and fixed in neutral paraformaldehyde.
(§4) The DAI scoring consisted of 3 parts, taking the method of mixed scoring of weight change, stool and blood in stool, and the specific DAI scoring criteria were shown in Table 3. Throughout the experiment, the DAI scoring of all mice was done by the same person to ensure the scale consistency of the scoring.
The experimental data were statistically analyzed by ANOVA method, and data of other groups and the Vehicle (PO, QD) group were analyzed by Dunnett's test to compare data of multiple groups, *p<0.05, **p<0.01, ***p<0.005, ****p<0.0001

[3] = Solubility remark in the LANCL2 binding table (footnote a); format: physicochemical; set-up: key: ª: “a” indicated poor solubility
[4] = system: TNBS-induced colitis in mice; test: Alleviating effect on TNBS-induced enteritis (colitis) in mice, study (I); format: in vivo, Balb/c mice; conditions: vs Vehicle group, Mesalamine PO 100 mpk QD
Experimental: Preparation method of L56: an appropriate amount of L56 compound was weighed into a brown sample vial, added with a certain volume of solvent 95% (20% HP-β-CD)+5% (10% sodium benzoate), the mixture was vortexed for 1 minute, and dissolved ultrasonically. The compound was prepared once a day.
Preparation method of L30: an appropriate amount of L30 compound was weighed into a brown sample vial, added with a certain volume of solvent 95% (20% HP-β-CD)+5% (10% sodium benzoate), the mixture was vortexed for 1 minute, and dissolved ultrasonically. The compound was prepared once a day.
Preparation method of Mesa (Mesalamine): an appropriate amount of Mesalamine (Selleck) was weighed into a brown sample vial, added with a certain volume of solvent 0.5% CMC-Na, the mixture was vortexed for 1 minute, and dissolved ultrasonically. The compound was prepared once a day.
as §1, with “Fifty-six” for “Sixty”, “seven” for “twelve”, “six” for “eleven”
as §2, §3, §4
The histopathological scoring was performed by a professional pathologist on the clinical pathology platform in a double-blind manner.
The experimental data were statistically analyzed by ANOVA method, positive drug Mesalamine (PO, 100 mpk, QD) group, L56 (PO, 50 mpk, BID) group, L30 (PO, 50 mpk, BID) group, *p<0.05, **p<0.01, ***p<0.005, ****p<0.0001

[5] = vs Vehicle group, PO, 50 mpk, BID

Sequence of LANCL2 (Q9NS86 whole entry, species assumed): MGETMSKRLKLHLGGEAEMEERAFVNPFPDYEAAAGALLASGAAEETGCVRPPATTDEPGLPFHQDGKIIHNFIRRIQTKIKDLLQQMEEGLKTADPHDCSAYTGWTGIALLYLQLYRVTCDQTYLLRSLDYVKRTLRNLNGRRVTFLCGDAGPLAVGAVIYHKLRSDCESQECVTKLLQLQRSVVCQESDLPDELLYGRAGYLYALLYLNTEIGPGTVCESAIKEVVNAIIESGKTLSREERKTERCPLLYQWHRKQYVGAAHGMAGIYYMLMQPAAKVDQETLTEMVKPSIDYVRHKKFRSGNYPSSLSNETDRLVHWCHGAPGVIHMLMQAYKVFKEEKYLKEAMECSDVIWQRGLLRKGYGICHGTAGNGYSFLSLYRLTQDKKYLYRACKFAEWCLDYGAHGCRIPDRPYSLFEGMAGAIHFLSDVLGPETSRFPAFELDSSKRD

O=C(NC1C2CN(C(=O)c3cccc(-c4nc5ccccc5[nH]4)n3)CC21)c1cccc(-c2nc3ccccc3[nH]2)n1 [Embodiment L-11, N-(3-(6-(1H-benzo[d]imidazol-2-yl)picolinoyl)-3-azabicyclo[3.1.0]hexan-6-yl)-6-(1H-benzo[d]imidazol-2-yl)pyridinecarboxamide]
binding activity compared with positive reference compound BT-11 [1]: better binding activities than the positive reference compound BT-11 | Kd [1]: 3.67 µM | Rmax (RU) [1]: 4.2 RU | alleviation of TNBS-induced colitis / inflammation (conclusion) ([2]; PO, 50 mpk, BID): could significantly alleviate the occurrence of inflammation in mice with TNBS-induced colitis; also recorded: could effectively alleviate TNBS-induced colitis in mice | alleviation of symptoms of diarrhea and blood in stool ([2]; PO, 50 mpk, BID): could effectively alleviate the symptoms of diarrhea and blood in stool in TNBS model mice | alleviation of weight loss caused by TNBS-induced colitis (body weight changes and DAI scores combined) ([2]; PO, 50 mpk, BID): could effectively alleviate the weight loss in mice caused by TNBS-induced colitis | colon weight (FIG. 18B) ([2]; vs Vehicle group): less colon weight | weight-to-length ratio of colon (FIG. 18C) ([2]; vs Vehicle group): significantly lower | DAI scores (FIG. 16B) [2, 5]: significantly lower | blood in stool score (FIG. 17B) [2, 5]: significantly slowed down | colon length (FIG. 18A) [2, 5]: significantly more colon length | diarrhea score (FIG. 17A) [2, 5]: significantly slowed down | weight loss of the mice (FIG. 16A) [2, 5]: significantly slowed down

O=C(c1cccc(-c2cn3ccccc3n2)c1)N1CCN(C(=O)c2cccc(-c3cn4ccccc4n3)c2)CC1 [Embodiment L-36, Piperazine-1,4-diylbis((3-(imidazol[1,2-a]pyridin-2-yl)phenyl)methanone)]
solubility (footnote a) [3]: ª

O=C(c1cccc(-c2nc3ccccc3[nH]2)n1)N1CCN(C(=O)c2cccc(-c3nc4ccccc4[nH]3)n2)CC1 [BT-11, reference compound]
Kd [1]: 4.46 µM | Rmax (RU) [1]: 3.6 RU | weight loss of the mice (FIG. 16A) [2, 5]: not significantly slowed down

Nc1ccc(O)c(C(=O)O)c1 [Mesalamine]
colon tissue pathological scores (HE staining) ([4]; L56 PO 50 mpk BID): lower colon tissue pathological scores with a statistically significant difference | DAI scores (FIG. 13B) ([4]; L compounds PO 50 mpk BID): significantly lower | colon length (FIG. 14B) ([4]; L compounds PO 50 mpk BID): significantly more colon length | colon weight (FIG. 14C) ([4]; L compounds PO 50 mpk BID): less colon weight | weight loss of the mice (FIG. 13A) ([4]; L compounds PO 50 mpk BID): significantly slowed down | weight-to-length ratio of colon (FIG. 14A) ([4]; L compounds PO 50 mpk BID): significantly lower | colon weight (FIG. 18B) ([2]; vs Vehicle group): less colon weight | weight-to-length ratio of colon (FIG. 18C) ([2]; vs Vehicle group): significantly lower

O=C1CCC(C(=O)N2CC3CN(C(=O)c4cccc(-c5nc6ccccc6[nH]5)n4)CC3C2)=NN1 [Embodiment L-121, 6-(5-(6-(1Hbenzo[d]imidazol-2-yl)picolinoyl)octahydropyrrolo[3,4-c]pyrrole-2-carbonyl)-4,5-dihydropyridazin-3(2H)-one]
Kd [1]: 20.8 µM | Rmax (RU) [1]: 2.3 RU

O=C(c1cccc(-c2nc3ccccc3[nH]2)n1)N1CCC2(CC1)CCN(C(=O)c1cccc(-c3nc4ccccc4[nH]3)n1)CC2 [Embodiment L-9, (3,9-diazaspiro[5.5]undecane-3,9-diyl)bis((6-(1H-benzo[d]imidazol-2-yl)pyridin-2-yl)methanone)]
binding activity compared with positive reference compound BT-11 [1]: better binding activities than the positive reference compound BT-11 | Kd [1]: 3.44 µM | Rmax (RU) [1]: 3.9 RU

O=C(c1cccc(Nc2ccccc2)n1)N1CCCC2(CCN(C(=O)c3cccc(-c4nc5ccccc5[nH]4)n3)CC2)C1 [Embodiment L-63, (9-(6-(1H-benzo[d]imidazol-2-yl)picolinoyl)-2,9-diazaspiro[5.5]undecan-2-yl)(6-(phenylamino)pyridin-2-yl)methanone]
Kd [1]: 53.5 µM | Rmax (RU) [1]: 7.6 RU

O=C(c1ccc(-c2ccccc2)cc1)N1CC2CN(C(=O)c3cccc(-c4nc5ccccc5[nH]4)n3)CC2C1 [Embodiment L-127, (5-(6-(1Hbenzo[d]imidazol-2-yl)picolinoyl)hexahydropyrrolo[3,4-c]pyrrol-2(1H)-yl)([1,1′-biphenyl]-4-yl)methanone]
Kd [1]: 9.38 µM | Rmax (RU) [1]: 5.1 RU

Cc1[nH]c2ccccc2c1C(=O)N1CC2CN(C(=O)c3cccc(-c4nc5ccccc5[nH]4)n3)CC2C1 [Embodiment L-71, (5-(6-(1H-benzo[d]imidazol-2-yl)picolinoyl)hexahydropyrrolo[3,4-c]pyrrol-2(1H)-yl)(2-methyl-1H-indol-3-yl)methanone]
Kd [1]: 40.6 µM | Rmax (RU) [1]: 5.9 RU

Cc1cn(-c2cccc(C(=O)N3CCN(C(=O)c4cccc(-c5nc6ccccc6[nH]5)n4)CC3)c2)cn1 [Embodiment L-117, (4-(6-(1H-benzo[d]imidazol-2-yl)picolinoyl)piperazin-1-yl)(3-(4-methyl-1H-imidazol-1-yl)phenyl)methanone]
Kd [1]: 27 µM | Rmax (RU) [1]: 3.2 RU

O=C(c1cccc(Nc2ccccc2)n1)N1CC2CN(C(=O)c3cccc(Nc4ccccc4)n3)CC2C1 [Embodiment L-100]
Kd [1]: 38.5 µM | Rmax (RU) [1]: 7.8 RU
